Target: Histamine H3 receptor (Homo sapiens, UniProt Q9Y5N1)
Assay: Displacement of [125I]iodoproxyfan from human histamine H3 receptor expressed in CHOK1 cells
Format: cell-based, CHO-K1

Histamine H3 receptor, sequence (Q9Y5N1 whole entry): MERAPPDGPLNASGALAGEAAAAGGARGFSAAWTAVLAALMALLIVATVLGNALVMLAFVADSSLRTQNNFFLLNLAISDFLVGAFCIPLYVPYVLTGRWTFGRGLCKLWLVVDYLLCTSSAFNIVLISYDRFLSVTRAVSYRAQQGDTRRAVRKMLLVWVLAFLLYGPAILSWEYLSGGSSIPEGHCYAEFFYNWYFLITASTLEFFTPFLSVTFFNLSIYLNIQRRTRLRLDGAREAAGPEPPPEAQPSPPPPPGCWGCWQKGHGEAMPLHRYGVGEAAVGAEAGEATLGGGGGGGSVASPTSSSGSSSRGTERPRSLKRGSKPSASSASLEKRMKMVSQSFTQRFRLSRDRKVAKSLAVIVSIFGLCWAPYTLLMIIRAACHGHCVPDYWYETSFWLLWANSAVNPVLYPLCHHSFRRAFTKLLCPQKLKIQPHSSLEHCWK

SMILES	Ki [nM]
N#Cc1c2ccccc2cn1CCCCN1CCCCC1	178
N#Cc1c2ccccc2cn1CCCN1CCCCC1	351
N#Cc1c2ccccc2cn1CCCCCCN1CCCCC1	31
O=[N+]([O-])c1ccc(NCCCCN2CCCCC2)c2nonc12	170
O=[N+]([O-])c1ccc(NCCCCCN2CCCCC2)c2nonc12	11
N#Cc1c2ccccc2cn1CCCCCN1CCCCC1	31
